Data published in patent US20100081679A1, “DIAMINOPYRIMIDINES AS FUNGICIDES” (Bayer CropScience AG, priority 2007, published 2010).

Test: logP determination via retention times, calibrated with unbranched alkan-2-ones
Format: physicochemical
Conditions: linear gradient from 10% to 95% acetonitrile
[1] = method **: HPLC, reversed-phase C 18, 43° C., mobile phase 0.1% aqueous phosphoric acid and acetonitrile
[2] = method *: HPLC, reversed-phase C 18, 40° C., mobile phase 0.1% aqueous formic acid and acetonitrile

## COCc1cccc(Nc2ncc(Cl)c(NC3CC3(C)C)n2)c1 (stereo not shown) [compound 1028]
[1]
  logP: 2.37**
[2]
  logP: 2.36*;

## CSc1cccc(Nc2ncc(Cl)c(NC3CC3(C)C)n2)c1 (stereo not shown) [compound 1029]
[1]
  logP: 3.07**
[2]
  logP: 3.07*;

## CN(C)C(=O)c1ccc(Nc2ncc(Cl)c(NC3CC3(C)C)n2)cc1 (stereo not shown) [compound 1030]
[1]
  logP: 1.86**
[2]
  logP: 1.86*;

## CCNC(=O)c1cccc(Nc2ncc(C(F)(F)F)c(NC3CC3)n2)c1 [compound 1031]
[2]
  logP: 2.07*

## CCC(CC)c1ccc(Nc2ncc(C(F)(F)F)c(NC3CC3)n2)cc1 [compound 1032]
[2]
  logP: 4.92*

## CCC(CC)c1ccc(Nc2ncc(Cl)c(NC3CC3)n2)cc1 [compound 1033]
[2]
  logP: 3.41*

## CCc1cccc(Nc2ncc(C(F)(F)F)c(NC3CC3)n2)c1 [compound 1034]
[2]
  logP: 3.67*

## CC1(C)CC1Nc1nc(Nc2cccc(N3CCOC3=O)c2)ncc1Cl (stereo not shown) [compound 1035]
[1]
  logP: 1.93**
[2]
  logP: 1.93*;

## COCCc1cccc(Nc2ncc(C(F)(F)F)c(NC3CC3)n2)c1 [compound 1039]
[1]
  logP: 2.88**

## Clc1cnc(Nc2cccc(OCCN3CCOCC3)c2)nc1NC1CC1 [compound 1040]
[2]
  logP: 0.84*

## COCCOc1cccc(Nc2ncc(C(F)(F)F)c(NC3CC3)n2)c1 [compound 1041]
[2]
  logP: 2.78*

## Clc1cnc(Nc2cccc(CN3CCCC3)c2)nc1NC1CC1 [compound 1043]
[1]
  logP: 0.92**

## COCc1cccc(Nc2ncc(Cl)c(N(Cc3ccc(OC)cc3)C3CC3)n2)c1 [compound 1044]
[1]
  logP: 4.07**

## COc1ccc(CN(c2nc(Nc3cccc(N4CCCC4=O)c3)ncc2Cl)C2CC2)cc1 [compound 1045]
[1]
  logP: 3.37**

## Clc1cnc(Nc2cccc(Cn3ccnc3)c2)nc1NC1CC1 [compound 1046]
[1]
  logP: 0.83**

## OCc1cc(Nc2ncc(Cl)c(NC3CC3)n2)ccc1F [compound 1047]
[2]
  logP: 1.25*

## CCCCCc1ccc(Nc2ncc(Cl)c(NC3CC3)n2)cc1 [compound 1048]
[2]
  logP: 3.55*

## CCN(CC)C(=O)c1cccc(Nc2ncc(C(F)(F)F)c(NC3CC3)n2)c1 [compound 1049]
[2]
  logP: 2.71*

## COCc1cc(Nc2ncc(Cl)c(NC3CC3)n2)ccc1OC [compound 1050]
[2]
  logP: 1.55*

## Cc1cccc(Nc2ncc(Cl)c(NCC3CC3)n2)c1 [compound 1051]
[2]
  logP: 2.09*

## FS(F)(F)(F)(F)c1cccc(Nc2ncc(Cl)c(NC3CC3)n2)c1 [compound 1052]
[1]
  logP: 3.7**

## Fc1ccc(Nc2ncc(Cl)c(NC3CC3)n2)cc1OC(F)F [compound 1053]
[2]
  logP: 2.62*

## CCCCSc1cccc(Nc2ncc(Cl)c(NC3CC3)n2)c1 [compound 1054]
[2]
  logP: 3.78*

## CN(c1nc(Nc2cccc(N3CCOC3=O)c2)ncc1Cl)C1CC1 [compound 1055]
[2]
  logP: 2.13*

## CCc1cccc(Nc2ncc(Cl)c(N(C)C3CC3)n2)c1 [compound 1058]
[2]
  logP: 3.65*

## CN1CCN(C(=O)c2cccc(Nc3ncc(Cl)c(NC4CC4)n3)c2)CC1 [compound 1059]
[2]
  logP: 0.59*

## CCN(C)C(=O)c1cccc(Nc2ncc(Cl)c(NC3CC3)n2)c1 [compound 1060]
[2]
  logP: 1.56*

## COCC1CCCN1C(=O)c1cccc(Nc2ncc(Cl)c(NC3CC3)n2)c1 (stereo not shown) [compound 1061]
[2]
  logP: 1.77*

## CC1CCCN1C(=O)c1cccc(Nc2ncc(Cl)c(NC3CC3)n2)c1 (stereo not shown) [compound 1062]
[2]
  logP: 1.86*

## O=C(c1cccc(Nc2ncc(Cl)c(NC3CC3)n2)c1)N1CCC1 [compound 1063]
[2]
  logP: 1.43*

## COCCN(C)C(=O)c1cccc(Nc2ncc(Cl)c(NC3CC3)n2)c1 [compound 1064]
[2]
  logP: 1.46*

## O=C(c1cccc(Nc2ncc(Cl)c(NC3CC3)n2)c1)N1CCNCC1 [compound 1065]
[2]
  logP: 0.53*

## Clc1cnc(Nc2cccc(C3CCCC3)c2)nc1NC1CC1 [compound 1066]
[2]
  logP: 3.18*

## O=C(c1cccc(Nc2ncc(Cl)c(NC3CC3)n2)c1)N1CCSCC1 [compound 1067]
[2]
  logP: 1.8*

## CCCS(=O)(=O)c1cccc(Nc2ncc(C(F)(F)F)c(NCC3CC3)n2)c1 [compound 1068]
[2]
  logP: 3.25*

## Brc1cnc(Nc2ccccc2)nc1NC1CC1 [compound 1069]
[2]
  logP: 2.65*
